Assay results taken from the supplement of paper PMC4862054.

Assays:
Assay in all cases: normalised viability (% of control), CellTiter-Blue; higher = more viable cells (about 100 = DMSO control)
Conditions in all cases: incubation time: 72 h
DU-4475 = tested on: DU-4475
Summary of the method: (§1)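 Compound dissolved in 5 µl medium was pre-loaded into 384-well plates, and breast cancer cell lines in 20 µl suspension were seeded on top and incubated 72 h. After adding 2.5 µl CellTiter-Blue reagent for 2 h at 37 °C, fluorescence was read at 560/590 nm. Plates were normalised to vehicle (100) and a positive kill control (0), with Z'-factor quality control. Each value is normalised viability at a single listed concentration from the series.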

BT-474 = tested on: BT-474
Summary of the method: as §1

BT-549 = tested on: BT-549
Summary of the method: as §1

HCC1937 = tested on: HCC1937
Summary of the method: as §1

MDA-MB-231 = tested on: MDA-MB-231
Summary of the method: as §1

CAL-148 = tested on: CAL-148
Summary of the method: as §1

CAL-51 = tested on: CAL-51
Summary of the method: as §1

Hs578T = tested on: Hs578T
Summary of the method: as §1

CAL-85-1 = tested on: CAL-85-1
Summary of the method: as §1

HCC1599 = tested on: HCC1599
Summary of the method: as §1

MDA-MB-453 = tested on: MDA-MB-453
Summary of the method: as §1

HCC1143 = tested on: HCC1143
Summary of the method: as §1

MFM-223 = tested on: MFM-223
Summary of the method: as §1

MDA-MB-436 = tested on: MDA-MB-436
Summary of the method: as §1

MDA-MB-468 = tested on: MDA-MB-468
Summary of the method: as §1

HDQ-P1 = tested on: HDQ-P1
Summary of the method: as §1

CC(=O)c1c(C)c2cnc(Nc3ccc(N4CCNCC4)cn3)nc2n(C2CCCC2)c1=O
normalised viability [%]
Conditions	3 nM	10 nM	30 nM	100 nM	1000 nM	10000 nM
BT-474	–	108	–	–	105	67
BT-549	–	101	–	–	109	85.2
CAL-51	106	–	99.8	93.7	–	–
CAL-85-1	96.2	–	102	91.4	–	–
CAL-148	91	–	89.4	93.6	–	–
DU-4475	104	–	99.7	105	–	–
HCC1143	–	74.2	–	–	73.5	61.8
HCC1599	–	93.3	–	–	109	89.3
HCC1937	–	38.9	–	–	102	67.9
HDQ-P1	95.2	–	99.9	99.5	–	–
Hs578T	–	100	–	–	83.9	71.5
MDA-MB-231	–	97.6	–	–	57.7	41.2
MDA-MB-436	–	78.1	–	–	36.7	89.8
MDA-MB-453	112	–	104	79.1	–	–
MDA-MB-468	–	115	–	–	99.8	85.3
MFM-223	–	77.5	–	–	79.3	74

C[C@]1(O)C[C@@H](c2nc(-c3ccc4ccc(-c5ccccc5)nc4c3)c3c(N)nccn32)C1 [OSI-906]
normalised viability [%]
Conditions	3 nM	10 nM	30 nM	100 nM	1000 nM	10000 nM
BT-474	–	102	–	–	91.5	78.4
BT-549	–	95.4	–	–	89.1	41.3
CAL-51	91.2	–	97.5	96.3	–	–
CAL-85-1	97.3	–	85.7	86.4	–	–
CAL-148	96.8	–	89.8	91.7	–	–
DU-4475	92.7	–	104	88.8	–	–
HCC1143	–	99.9	–	–	85.5	75.2
HCC1599	–	104	–	–	76.8	78.9
HCC1937	–	92.8	–	–	79.7	48.4
HDQ-P1	79.4	–	83.9	85.4	–	–
Hs578T	–	103	–	–	95.2	71.4
MDA-MB-231	–	84.4	–	–	79.7	74.3
MDA-MB-436	–	85.2	–	–	96	71.7
MDA-MB-453	97.9	–	92.9	78.6	–	–
MDA-MB-468	–	104	–	–	86.5	84.6
MFM-223	–	98.3	–	–	91.6	74.5
